Reference: the supplement of paper PMC8671470

Columns and labels:
Conditions in all cases: 72 h
[1] = test system: ML-2
Method in brief: (§1)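 The IC50 was read from log-logistic dose–response fits. Fifteen myeloid leukaemia lines were exposed for 72 h at 37 °C with 5% CO2 to five tenfold doses from 1 to 10,000 nM in duplicate. ATP luminescence, normalised to vehicle and to a 10 µM positive control, was fitted with four parameters.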

[2] = test system: KCL-22
Method in brief: as §1

[3] = test system: HEL
Method in brief: as §1

[4] = test system: KG-1
Method in brief: as §1

[5] = test system: MOLM-13
Method in brief: as §1

[6] = test system: HL-60
Method in brief: as §1

[7] = test system: LAMA-84
Method in brief: as §1

[8] = test system: Mono-Mac-6
Method in brief: as §1

[9] = test system: NOMO-1
Method in brief: as §1

[10] = test system: KU-812
Method in brief: as §1

[11] = test system: THP-1
Method in brief: as §1

[12] = test system: K-562
Method in brief: as §1

[13] = test system: SHI-1
Method in brief: as §1

[14] = test system: MV4-11
Method in brief: as §1

[15] = test system: BV-173
Method in brief: as §1

[16] = test system: ML-2; assay: cell viability (% survival relative to DMSO control, bortezomib = 0%); higher = less cytotoxic
Method in brief: (§2)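 After 72 h at 37 °C with 5% CO2, cell viability in 384-well plates was measured by CellTiter-Glo luminescence. The plates held compounds pre-printed at 1, 10, 100, 1000 or 10000 nM in duplicate, and cells from 10 AML and 5 CML lines seeded at densities titrated to linear growth. Percent survival is the duplicate mean, normalised to vehicle as 100% and a 10 µM positive control as 0%.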

[17] = test system: KCL-22; assay: as above
Method in brief: as §2

[18] = test system: HEL; assay: as above
Method in brief: as §2

[19] = test system: KG-1; assay: as above
Method in brief: as §2

[20] = test system: MOLM-13; assay: as above
Method in brief: as §2

[21] = test system: HL-60; assay: as above
Method in brief: as §2

[22] = test system: LAMA-84; assay: as above
Method in brief: as §2

[23] = test system: Mono-Mac-6; assay: as above
Method in brief: as §2

[24] = test system: NOMO-1; assay: as above
Method in brief: as §2

[25] = test system: KU-812; assay: as above
Method in brief: as §2

[26] = test system: THP-1; assay: as above
Method in brief: as §2

[27] = test system: K-562; assay: as above
Method in brief: as §2

[28] = test system: SHI-1; assay: as above
Method in brief: as §2

[29] = test system: MV4-11; assay: as above
Method in brief: as §2

[30] = test system: BV-173; assay: as above
Method in brief: as §2

OCCN(CCO)c1nc(N2CCCCC2)c2nc(N(CCO)CCO)nc(N3CCCCC3)c2n1 [Dipyridamole]
Conditions | IC50 (cell viability) [µM]
[1] | > 10
[2] | > 10
[3] | > 10
[4] | > 10
[5] | > 10
[6] | > 10
[7] | > 10
[8] | > 10
[9] | > 10
[10] | > 10
[11] | > 10
[12] | > 10
[13] | > 10
[14] | 8.82
[15] | 3.55

cell viability [%]
Conditions | 1 nM | 10 nM | 100 nM | 1000 nM | 10000 nM
[16] | 93.4 | 104 | 123 | 103 | 66.4
[17] | 114 | 95.3 | 98.9 | 106 | 65
[18] | 87.6 | 101 | 102 | 105 | 77.7
[19] | 94.7 | 112 | 101 | 104 | 90.2
[20] | 116 | 117 | 97.5 | 83.5 | 97.8
[21] | 129 | 65.2 | 105 | 61.6 | 93.8
[22] | 97.9 | 99.6 | 108 | 90.3 | 83.7
[23] | 98 | 103 | 98.5 | 97.1 | 77.4
[24] | 98 | 101 | 107 | 92.3 | 81.9
[25] | 87.9 | 98.7 | 90.7 | 86.5 | 69.4
[26] | 96.6 | 100 | 107 | 90.8 | 81.5
[27] | 108 | 89.5 | 105 | 85.6 | 67
[28] | 104 | 113 | 110 | 92.2 | 80.9
[29] | 95.8 | 95 | 101 | 94.4 | 43.5
[30] | 90.4 | 98.2 | 92.4 | 78.6 | 38.8

CN(C)C(=N)NC(=N)N [Metformin]
Conditions | IC50 (cell viability) [µM]
[1] | > 10
[2] | > 10
[3] | > 10
[4] | > 10
[5] | > 10
[6] | > 10
[7] | > 10
[8] | > 10
[9] | > 10
[10] | > 10
[11] | > 10
[12] | > 10
[13] | > 10
[14] | > 10
[15] | > 10

cell viability [%]
Conditions | 1 nM | 10 nM | 100 nM | 1000 nM | 10000 nM
[16] | 102 | 101 | 99.2 | 101 | 88.5
[17] | 98.2 | 98.9 | 98.4 | 103 | 88.1
[18] | 110 | 94.3 | 107 | 102 | 97.3
[19] | 97.4 | 97.3 | 101 | 100 | 96.3
[20] | 105 | 91.5 | 117 | 102 | 83.5
[21] | 98.2 | 93.8 | 109 | 102 | 84.3
[22] | 95.6 | 87.9 | 97.9 | 97.7 | 92.9
[23] | 113 | 89.7 | 95.5 | 97.9 | 91.8
[24] | 109 | 93.6 | 95.4 | 97.1 | 92.2
[25] | 102 | 95.5 | 96.2 | 110 | 88.5
[26] | 99.4 | 95.4 | 93 | 101 | 94.4
[27] | 91.9 | 102 | 97.5 | 103 | 91.1
[28] | 103 | 98.3 | 104 | 106 | 93.9
[29] | 91.2 | 79.7 | 81.7 | 107 | 84.7
[30] | 107 | 90.3 | 92 | 100 | 89.2

CCCCCCCCCCCCC/C=C/[C@@H](O)[C@H](CO)N(C)C [N,N-Dimethylsphingosine]
Conditions | IC50 (cell viability) [µM]
[1] | 3.46
[2] | 2.78
[3] | 2.98
[4] | 3.58
[5] | > 10
[6] | > 10
[7] | > 10
[8] | > 10
[9] | > 10
[10] | > 10
[11] | > 10
[12] | > 10
[13] | > 10
[14] | > 10
[15] | 1.67

cell viability [%]
Conditions | 1 nM | 10 nM | 100 nM | 1000 nM | 10000 nM
[16] | 95.1 | 96.8 | 97.7 | 107 | -0.179
[17] | 95.8 | 98 | 101 | 91.3 | 1.85
[18] | 96.2 | 94.6 | 103 | 96.2 | 0.109
[19] | 92.2 | 96.8 | 101 | 82.7 | 37.4
[20] | 97.3 | 96.5 | 86.2 | 104 | 71.1
[21] | 90.6 | 84.7 | 100 | 105 | 88.9
[22] | 101 | 96.7 | 106 | 91.3 | 93.3
[23] | 95.1 | 91.7 | 97.9 | 89.4 | 70
[24] | 92 | 101 | 100 | 94.1 | 85.8
[25] | 101 | 90.5 | 103 | 102 | 55
[26] | 97.5 | 100 | 105 | 89.7 | 61.7
[27] | 97.4 | 95.2 | 103 | 104 | 85.6
[28] | 101 | 97.8 | 104 | 97.8 | 83.8
[29] | 94.2 | 102 | 95 | 117 | 95.8
[30] | 93 | 89.7 | 98.7 | 74.2 | 22.5
